In data set [1] the test system is MUC1 protein in A549 cells. The settings on record: A549 cells, 5.0 μg/ml AcD or 10 μg/ml Chx, no NE.
Protocol: Confluent A549 cells were incubated in the presence or absence of 5.0 μg/ml of actinomycin (AcD) or 10 μg/ml of cycloheximide (Chx) for 1 hr and either non-treated or treated for 24 hr with 100 nM of NE. MUC1 protein levels in cell lysates (A) and spent media (B) were measured by ELISA. Each bar represents the mean±SEM (n=3). […] (C) Aliquots of spent media obtained from confluent A549 cells were non-treated (0 hr) or treated for 24 hr with 100 nM NE or vehicle control and MUC1 levels in the spent media determined by ELISA. Each bar represents the mean±SEM (n=3).
A549 cells were seeded at 5.0×10^4 cells/well in 24-well plates in Dulbecco's Modified Eagle Medium (DMEM) containing 10% fetal bovine serum (FBS), 100 U/ml penicillin, and 100 μg/ml streptomycin (all from Invitrogen, Carlsbad, Calif.) and incubated at 37° C. in a humidified CO2 incubator. Confluent monolayers were washed with serum-free DMEM and treated with 100 nM (2.6 U/ml) NE or vehicle control (PBS) for 24 hr. In some experiments, the cells were pretreated for 1 hr with 5.0 μg/ml of actinomycin D or 10 μg/ml of cycloheximide prior to NE treatment. Following treatment, cell-conditioned media were collected, and the cells were washed with PBS and lysed with 500 μl/well of PBS containing 1.0% Triton X-100, 1.0% sodium deoxycholate, 1.0% protease inhibitor cocktail, and 2.0 mM phenylmethylsulfonyl fluoride (PMSF). Lysates and conditioned media were incubated for 20 min at 80° C. to inactivate residual NE, insoluble material removed by centrifugation at 14,000×g for 10 min at 4° C., and protein concentrations measured by the procedure of Bradford using bovine serum albumin as standard.
ELISA. A549 cell lysates or cell-conditioned culture media were centrifuged at 10,000×g for 10 min at 4° C., added in triplicate to 96-well ELISA plates (MaxiSorb™, Nalge Nunc, Rochester, N.Y.), and incubated overnight at 4° C. Wells were blocked for 1 hr at room temperature (about 22° C.) with PBS, pH 7.0, containing 10 mg/ml BSA and 50 mg/ml sucrose and washed with PBS containing 0.05% Tween 20 (PBS-T). The samples were reacted for 2 hr at room temperature with 200 μg/ml of primary MUC1 antibody (GP1.4), washed with PBS-T, reacted for 2 hr at room temperature with 200 μg/ml of secondary antibody (peroxidase-conjugated goat antimouse IgG) (KPL, Gaithersburg, Md.), and washed with PBS-T. Bound antibodies were detected with tetramethylbenzidine substrate (SureBlue™, KPL), the substrate reaction stopped with 1 N HCl, and absorbencies at 450 nm measured using a microplate spectrophotometer (Dexall, Gaithersburg, Md.).
The target of data set [2] is T1, TLR5 (Homo sapiens, UniProt O60602). Briefly: cell-based or functional assay.
Data set [3] deals with MUC1 transcription (MEK/ERK signaling pathway). Briefly: TNF-α induced MUC1 expression in A549 lung epithelial cells. Format: cell-based, human. From the text:
TNF-α induces MUC1 expression through a MAP kinase pathway in human lung epithelial cells. TNF-α stimulates MUC1 transcription and protein expression in lung epithelial cells. Activation of MAP kinases and NF-κB was verified using Western blot analysis. […] TNF-α activate all three MAP kinases (ERK, p38, and JNK) as well as NF-κB. […] TNF-α stimulates MUC1 production in A549 cells through transcriptional activation via the MEK/ERK signaling pathway.

Data set [4] concerns ELAM-1 promoter activity in A549 lung carcinoma cells. Briefly: ELAM-1 promoter-luciferase assay in A549 cells after MUC1 siRNA transfection. To be noted: 8.0 nM siRNA 24 h, 10 ng/ml flagellin 6 h. Type of data set: cell-based, human. How it is done:
To assess the effects of endogenous MUC1 expression on NF-κB activation, ELAM-1 promoter activity in A549 lung carcinoma cells following transfection with MUC1 with small interfering RNA (siRNA) duplexes was measured. Inhibition of MUC1 expression was confirmed by FACS analysis following treatment with the MUC1 siRNA but not a control RNA (data not shown).
Referring now to FIG. 3, twenty four hours after transfection with the control RNA or MUC1 siRNA, A549 cells were treated with 10 ng/ml of flagellin or an equivalent amount of the fliC control for 6 hours. Cell lysates were prepared and luciferase activity measured as indicated in the examples section. […]
HEK293T and A549 cells were seeded in 24-well plates at 2×10^5 and 5×10^4 cells/well respectively, incubated overnight, and transfected with the 0.4 μg/well of the NF-κB responsive pELAM-1 promoter-luciferase plasmid and 10 ng/well of the phRL-TK plasmid (Promega) as an internal control using 2 μl/well of Lipofectamine™2000 (Invitrogen) according to the manufacturer's instructions. The cells were incubated for 24 h at 37° C. in 5% CO2, treated with 10 ng/ml PAK flagellin or an equivalent volume of the fliC negative control for 6 h, and relative luciferase activity determined. […] Data are expressed as mean relative luciferase activity±SEM of triplicate or quadruplicate determinations.

Another data set relates to MUC1. Briefly: MUC1 siRNA knockdown of MUC1 expression in primary NHBE cells (immunoblot, FACS). Type of data set: cell-based, human. The settings on record: 1.5 μg siRNA, vs control RNA. As for the experimental part: (§1) Primary NHBE cells were nucleofected with 1.5 μg of a MUC1 siRNA or a non-targeting control RNA. At 48 h post-nucleofection, total MUC1 protein was determined by immunoblotting as described (20) (A) and cell surface MUC1 was determined by FACS analysis using anti-MUC1 (GP1.4, mouse IgG1, κ, Biomeda) as primary antibody and R-Phycoerythrin-conjugated goat anti-mouse IgG (Santa Cruz) as secondary antibody. Mouse IgG1 (κ isotype, eBioscience) was used as primary antibody to determine threshold fluorescence signal. (B). (C) Cells were stimulated with 10 ng/ml of flagellin for 6 h and IL-8 levels in basolateral medium were measured.
Macrophages were harvested from BALF or the peritoneal space, and erythrocytes lysed with 10 mM Tris-HCl, pH 7.2 containing 150 mM NH4Cl. Peritoneal macrophages (PM) were harvested after treating mice i.p. with 3% thioglycollate for 3 days. The recovered cells consisted of >95% macrophages as determined by immunofluorescence using the F4/80 macrophage marker (eBioscience). Cells were seeded in 24-well tissue culture plates at 1.0×10^5 cells/well in DMEM containing 10% FBS, […], and allowed to adhere for 24 h before flagellin or LPS (PA10, Sigma) treatment. […]
Background: Immunoblotting shows a protein as a band on a membrane.

In data set [5] the test system is IL-8 levels in primary NHBE cells. Briefly: Flagellin-induced IL-8 levels in MUC1 siRNA-treated primary NHBE cells. Type of data set: cell-based, human. To be noted: 10 ng/ml flagellin 6 h, basolateral medium. As for the experimental part:
as §1
Macrophages were harvested from BALF or the peritoneal space, and erythrocytes lysed with 10 mM Tris-HCl, pH 7.2 containing 150 mM NH4Cl. Peritoneal macrophages (PM) were harvested after treating mice i.p. with 3% thioglycollate for 3 days. The recovered cells consisted of >95% macrophages as determined by immunofluorescence using the F4/80 macrophage marker (eBioscience). […]
(§2) Mouse KC and TNF-α and human IL-8 were quantified by ELISA using commercially available antibodies (eBioscience; R&D Systems). All samples were analyzed in triplicate and standard curves were performed on each plate.

Data set [6] concerns the target T1, TLR5. Briefly: Flagellin-driven IL-8 release in HEK293T cells with or without transfected TLR5. Format: cell-based. Further details: V5-His (vector pEF6/V5-His); expressed in transfected cells; host or cells: HEK293T. As for the experimental part:
TLR5 mediates flagellin-stimulated innate immune responses. Because TLR5 and MUC1/Muc1 are flagellin receptors and both are expressed by airway macrophages and epithelial cells the relationship between MUC1 and TLR5 in response to flagellin in HEK293T cells stably transfected with a MUC1 expressing plasmid and flagellin-driven IL-8 release was determined following transient transfection with a TLR5 expressing plasmid. HEK293T cells express TLR5 but not MUC1. […] Flagellin-induced increase in IL-8 release was completely abolished in cells co-transfected with MUC1 and TLR5. […] HEK293T cells stably transfected with the pcDNA3.1 empty vector (A) or plasmids encoding the full-length MUC1 or MUC1-ACT (B) were transiently transfected with a TLR5 expression plasmid or empty vector. At 24 h post-transfection, the cells were treated for 6 h with 10 ng/ml of flagellin or PBS, and IL-8 levels in medium were measured. […]
as §2

The subject of data set [7] is ELAM-1 promoter (NF-κB activation, TLR5 signaling) in HEK293T cells. Briefly: ELAM-1 promoter-luciferase reporter assay in HEK293T cells. Type of data set: cell-based, human. To be noted: 10 ng/ml PAK flagellin, 6 h. From the text: The relationship between TLR5 and MUC1 signaling in response to flagellin was investigated utilizing TLR5-expressing cells in the absence or presence of MUC1 expression. Initially, we screened a number of different airway and non-airway cell lines by Western blotting and/or real-time PCR with the goal of identifying a TLR5+/MUC1− host cells for transfection of the pMUC1 expression plasmid. Referring now to FIG. 1A, (A) HEK293T cells were transfected with pcDNA3.1 empty vector or the pMUC1 expression plasmid. After trypsinization, cells were reacted with normal mouse IgG or mouse anti-MUC1 antibody followed by PE-conjugated goat anti-mouse IgG antibody and examined by FACS analysis. […] Cell lysates were prepared and relative luciferase activity measured as indicated in Materials and Methods. […]
HEK293T and A549 cells were seeded in 24-well plates at 2×10^5 and 5×10^4 cells/well respectively, incubated overnight, and transfected with the 0.4 μg/well of the NF-κB responsive pELAM-1 promoter-luciferase plasmid and 10 ng/well of the phRL-TK plasmid (Promega) as an internal control using 2 μl/well of Lipofectamine™2000 (Invitrogen) according to the manufacturer's instructions. The cells were incubated for 24 h at 37° C. in 5% CO2, treated with 10 ng/ml PAK flagellin or an equivalent volume of the fliC negative control for 6 h, and relative luciferase activity determined. […]
A general note: A reporter such as luciferase makes a cellular process visible.

*1 amine or outer side, *2 acyl side, *3 side chain or, on linkers, in order; H or OH if unused. Where a SMILES comes first, the peptide text is derived from it. Bridges are numbered along the chain shown (N, C = ends). Roman numbers before positions name the chains, in order. [ ]: non-standard residue; d: D form. Actinocin(9to1) = Cc1c2oc3c(C)ccc(C(=O)[*:1])c3nc-2c(C(=O)[*:2])c(N)c1=O; NMeV = CN[C@H](C(=O)O)C(C)C; d = 2'-deoxy (DNA); Sar = CNCC(=O)O; r = 2'-OH (RNA)

T1 sequence (O60602 21-858): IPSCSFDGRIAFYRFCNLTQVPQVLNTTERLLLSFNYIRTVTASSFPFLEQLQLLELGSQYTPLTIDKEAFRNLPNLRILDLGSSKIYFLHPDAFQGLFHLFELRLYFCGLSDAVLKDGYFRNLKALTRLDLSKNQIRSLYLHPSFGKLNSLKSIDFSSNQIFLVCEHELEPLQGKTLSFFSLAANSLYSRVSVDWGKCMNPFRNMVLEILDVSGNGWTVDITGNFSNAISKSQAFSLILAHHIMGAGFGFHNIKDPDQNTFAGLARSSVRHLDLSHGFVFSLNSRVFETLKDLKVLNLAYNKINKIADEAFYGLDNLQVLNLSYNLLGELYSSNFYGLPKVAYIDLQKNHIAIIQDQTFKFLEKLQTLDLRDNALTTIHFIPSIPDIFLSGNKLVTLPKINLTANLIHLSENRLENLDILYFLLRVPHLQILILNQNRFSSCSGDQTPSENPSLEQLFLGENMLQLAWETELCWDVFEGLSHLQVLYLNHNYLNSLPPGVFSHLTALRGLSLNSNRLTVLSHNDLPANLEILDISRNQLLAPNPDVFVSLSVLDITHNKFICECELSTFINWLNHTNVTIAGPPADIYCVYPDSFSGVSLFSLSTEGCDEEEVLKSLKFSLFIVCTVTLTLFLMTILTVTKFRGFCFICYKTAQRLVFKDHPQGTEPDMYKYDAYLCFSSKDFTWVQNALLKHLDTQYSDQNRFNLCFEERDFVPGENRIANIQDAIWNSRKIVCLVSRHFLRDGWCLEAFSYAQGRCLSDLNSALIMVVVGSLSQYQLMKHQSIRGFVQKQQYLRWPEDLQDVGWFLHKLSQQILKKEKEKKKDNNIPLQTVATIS

`C[C@@H]1C[C@@H]([C@H](O)CC2CC(=O)NC(=O)C2)C(=O)[C@@H](C)C1` [Chx, cycloheximide]: the “effect of treatment alone on cellular MUC1 levels” value in data set [1] is reported as “did not significantly affect”.
Turning to “P. aeruginosa strain K (PAK) flagellin (from UniProt P21184 2-394) (ligand)”, in the data set with TLR5 [2], the IL-8 release (HEK293T cells transfected with empty vector, endogenous TLR5; 10 ng/ml flagellin for 6 h vs PBS) amounted to 55 % increase; the IL-8 release (HEK293T cells transiently transfected with TLR5 expression plasmid; 10 ng/ml flagellin for 6 h vs PBS) came out at 164 % increase; the relative luciferase activity (ELAM-1 promoter-luciferase reporter, HEK293T cells, 10 ng/ml flagellin vs fliC negative control) came out at 10 fold.
Regarding `N#CC(=C(/N)Sc1ccccc1N)/C(C#N)=C(\N)Sc1ccccc1N` [U0126], in data set [3] (A549 cells, pretreatment with U0126), the “effect on TNF-α induced MUC1 transcription” value was “completely blocked”.
“MUC1 siRNA: 21-bp siRNA with a sequence derived from the MUC1 gene (Dharmacon); sense SEQ ID NO: 2, antisense SEQ ID NO: 3 (sense GUUCAGUGCCCAGCUCUACTT; antisense GUAGAGCUGGGCACUGAACTT; sugars from the 5' end r19 d2, backbone not given here)”: in data set [4], the “effect on flagellin-induced ELAM-1 promoter activity compared with control RNA” value was “significantly increased”. Besides, in the data set on MUC1 (48 h, FACS), the “decrease in the number of cells with surface MUC1 expression” value was found to be 67%. Further, the “knockdown of total cellular MUC1 expression” value with MUC1 (48 h post-nucleofection, immunoblot) is reported as “approximately 95%”. Further, the “greater flagellin-induced IL-8 levels compared with control RNA” value in data set [5] was found to be 50%.
For the molecule TNF-α, the “effect on MUC1 protein and mRNA levels” value in data set [3] (human lung epithelial (A549) cells) was “increased both MUC1 protein and mRNA levels”.
For the molecule `Cc1c2oc3c(C)ccc(C(=O)N[C@@H]4C(=O)N[C@H](C(C)C)C(=O)N5CCC[C@H]5C(=O)N(C)CC(=O)N(C)[C@@H](C(C)C)C(=O)O[C@@H]4C)c3nc-2c(C(=O)N[C@@H]2C(=O)N[C@H](C(C)C)C(=O)N3CCC[C@H]3C(=O)N(C)CC(=O)N(C)[C@@H](C(C)C)C(=O)O[C@@H]2C)c(N)c1=O` [AcD, actinomycin D] (I: T[dV]P[Sar][NMeV] / II: T[dV]P[Sar][NMeV]; ester I:1-I:C, II:1-II:C; linker I:N-II:N via Actinocin(9to1)), in data set [1], the “effect of treatment alone on cellular MUC1 levels” value is given as “did not significantly affect”.

B1: PAK flagellin: P. aeruginosa strain K flagellin purified by differential centrifugation, single 50 kDa protein band (protein)
chain: ALTVNTNIASLNTQRNLNNSSASLNTSLQRLSTGSRINSAKDDAAGLQIANRLTSQVNGLNVATKNANDGISLAQTAEGALQQSTNILQRMRDLSLQSANGSNSDSERTALNGEVKQLQKELDRISNTTTFGGRKLLDGSFGVASFQVGSAANEIISVGIDEMSAESLNGTYFKADGGGAVTAATASGTVDIAIGITGGSAVNVKVDMKGNETAEQAAAKIAAAVNDANVGIGAFSDGDTISYVSKAGKDGSGAITSAVSGVVIADTGSTGVGTAAGVTPSATAFAKTNDTVAKIDISTAKGAQSAVLVIDEAIKQIDAQRADLGAVQNRFDNTINNLKNIGENVSAARGRIEDTDFAAETANLTKNQVLQQAGTAILAQANQLPQSVLSLLR
Take B1: the “increase in IL-8 release compared with PBS treatment” value in the data set with TLR5 [6] (HEK293T cells transfected with TLR5, 10 ng/ml flagellin 6 h) was 164%; in the data set with TLR5 [6] (HEK293T cells transfected with empty vector, 10 ng/ml flagellin 6 h), 55%. In addition, in data set [7], the “increase in relative luciferase activity (ELAM-1 promoter) compared with fliC negative control” value is “greater than 10 fold”.

These data come from US8298522B1, “Methods of modulating MUC1 expression to inhibit inflammation” (priority 2005, dated 2012).
